Measurements from ChEMBL document CHEMBL1201862, “PubChem BioAssay data set” (2004).
Activity calls are given as the source filed them.

Experiments:
[1] = inhibitors of firefly luciferase expression or activity, dose response, H4 neuroglioma cells, luminescence (AID 1990); type: functional, cell-based
[2] = biological target: T1, Orexin/Hypocretin receptor type 1 (Homo sapiens, UniProt O43613); experiment: Homogeneous Time Resolved Fluorescence (HTRF)-based cell-based high throughput dose response assay for antagonists of the orexin 1 receptor (OX1R; HCRTR1). [Related pubchem assays (depositor defined):AID434989, AID435008, AID463079, AID485270, AID492963, AID492964, AID492965, AID493232, AID504717, AID504718]; type: functional
T1 sequence (O43613 whole entry): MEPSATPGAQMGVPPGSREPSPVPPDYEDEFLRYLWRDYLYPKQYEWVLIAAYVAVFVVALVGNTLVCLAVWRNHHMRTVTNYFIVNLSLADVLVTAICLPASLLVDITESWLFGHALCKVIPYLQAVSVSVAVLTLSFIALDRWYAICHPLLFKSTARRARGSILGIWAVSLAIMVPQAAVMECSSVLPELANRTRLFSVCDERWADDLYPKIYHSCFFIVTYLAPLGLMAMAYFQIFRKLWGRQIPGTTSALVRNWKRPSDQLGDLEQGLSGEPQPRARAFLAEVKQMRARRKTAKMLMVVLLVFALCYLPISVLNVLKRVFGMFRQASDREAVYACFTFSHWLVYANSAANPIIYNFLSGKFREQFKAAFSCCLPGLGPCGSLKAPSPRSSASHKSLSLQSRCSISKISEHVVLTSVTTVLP

Orexin receptor type 2 [3] = biological target: T2, Orexin receptor type 2 (Homo sapiens, UniProt O43614); experiment: Counterscreen assay for antagonists of the orexin 1 receptor (OX1R; HCRTR1): Homogeneous Time Resolved Fluorescence (HTRF)-based cell-based dose response assay for antagonists of the orexin 2 receptor (OX2R; HCRTR2), run by assay provider.; type: functional
[4] = Luminescence Cell-Based Dose Response HTS to Identify Inhibitors of 5'UTR Stem-Loop Driven Prion Protein mRNA Translation in H4 Neuroglioblastoma Cells. [Related pubchem assays: 1827 (Project Summary), 1813 (Primary HTS)]; type: functional
CHO-K1 = experiment: (§1) Counterscreen for antagonists of the orexin 1 receptor (OX1R; HCRTR1): Homogeneous time resolved fluorescence (HTRF)-based cell-based dose response assay to identify antagonists of the parental CHO-K1 cell line. [Related pubchem assays (depositor defined):AID434989, AID435008, AID463079, AID485270, AID492963, AID492964, AID492965, AID493232, AID504699, AID504701]; type: functional; details: Cricetulus griseus
[5] = as §1, with “Fluorescence-based” for “Homogeneous time resolved fluorescence (HTRF)-based”, “cell-based high throughput” for “cell-based”, “CHO” for “CHO-K1”; type: functional
Orexin receptor type 2 [6] = biological target: T2, Orexin receptor type 2; experiment: Counterscreen assay for antagonists of the orexin 1 receptor (OX1R; HCRTR1): Fluorescence-based cell-based dose response assay for antagonists of the orexin 2 receptor (OX2R; HCRTR2), run by assay provider.; type: functional
[7] = inhibitors of SNCA 5'UTR-driven reporter translation, confirmation, H4 neuroglioma cells, luminescence (AID 1988); type: functional, cell-based
[8] = biological target: T1, Orexin/Hypocretin receptor type 1; experiment: Fluorescence-based cell-based high throughput dose response assay for antagonists of the orexin 1 receptor (OX1R; HCRTR1). [Related pubchem assays (depositor defined):AID434989, AID435008, AID463079, AID485270, AID492963, AID492964, AID492965, AID493232, AID504717, AID504718]; type: functional
[9] = biological target: T3, Microphthalmia-associated transcription factor (Homo sapiens, UniProt O75030); experiment: TRPM1 promoter luciferase signal decrease, dose response, MITF inhibitor project, cell-based, SK-MEL-5, cherry-picked, set 3 (AID 493073); type: functional
T3 sequence (O75030 whole entry): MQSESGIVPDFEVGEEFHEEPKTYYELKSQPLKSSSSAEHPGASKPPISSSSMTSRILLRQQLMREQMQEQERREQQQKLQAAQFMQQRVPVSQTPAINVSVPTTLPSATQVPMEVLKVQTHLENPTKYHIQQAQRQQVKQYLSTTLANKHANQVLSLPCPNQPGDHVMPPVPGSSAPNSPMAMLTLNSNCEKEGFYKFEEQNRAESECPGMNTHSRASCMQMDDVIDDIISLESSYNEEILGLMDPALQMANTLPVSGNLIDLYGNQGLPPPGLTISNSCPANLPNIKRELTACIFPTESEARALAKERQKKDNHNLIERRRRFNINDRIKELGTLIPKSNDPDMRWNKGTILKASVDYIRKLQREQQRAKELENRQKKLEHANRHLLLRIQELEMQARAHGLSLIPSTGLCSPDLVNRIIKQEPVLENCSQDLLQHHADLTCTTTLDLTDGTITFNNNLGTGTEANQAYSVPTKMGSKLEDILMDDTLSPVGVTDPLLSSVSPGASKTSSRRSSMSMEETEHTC

[10] = biological target: Heat shock protein HSP 90-alpha (Homo sapiens, UniProt P07900); type: functional, organism-based
Beta Lactamase = Beta Lactamase (Pseudomonas aeruginosa, UniProt Q932Y6); experiment: beta-lactamase reporter inhibitor potency, dose response, artefact control for TLR9-MyD88 binding inhibitor project, BLA reporter cells, FRET fluorescence (AID 588341); type: cell-based;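 also: cell based assay in CHO-K1 cells stably expressing beta-lactamase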
CHO = experiment: cytotoxicity in TLR9-MyD88 CHO cells, dose response, cytotoxicity control for TLR9-MyD88 binding inhibitor project, cell-based, luminescence (AID 588339); type: functional, hamster; details: Cricetulus griseus;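 also: CHO cells stably coexpressing TLR9 and MyD88 fusions from primary screen; compound exposure lasted 48 hours before viability readout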
[11] = biological target: Latent membrane protein 1 (Human herpesvirus 4 (strain B95-8), UniProt P03230); experiment: TES1-eGFP NF-kB reporter inhibition versus Tet-On dsRED, dose response, selectivity assay for LMP1 NF-kB inhibitor project, imaging, HEK293T, dual-color eGFP/dsRED, cherry-picks (AID 588398); type: functional, cell-based
[12] = Luminescence-based dose response cell-based high throughput screening assay for cytotoxic compounds using the IEC-6 intestinal epithelial cell line. [Related pubchem assays: 1858 (Summary AID.), 1825 (Counterscreen.), 1907 (Confirmation screen.)]; type: functional
[13] = biological target: Kappa-type opioid receptor (Homo sapiens, UniProt P41145); type: functional
Beta-galactosidase [14] = biological target: T4, Beta-galactosidase (Escherichia coli, UniProt Q8VNN2); experiment: PubChem AID 485352; type: functional
[15] = biological target: T5, Type-1 angiotensin II receptor (Homo sapiens, UniProt P30556); experiment: AT1 receptor antagonists, dose response, selectivity assay for APJ receptor antagonist project, cell-based, uHTS hits (AID 463214); type: functional;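 also: antagonist potency against angiotensin II stimulated AT1 response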
T5 sequence (P30556 whole entry): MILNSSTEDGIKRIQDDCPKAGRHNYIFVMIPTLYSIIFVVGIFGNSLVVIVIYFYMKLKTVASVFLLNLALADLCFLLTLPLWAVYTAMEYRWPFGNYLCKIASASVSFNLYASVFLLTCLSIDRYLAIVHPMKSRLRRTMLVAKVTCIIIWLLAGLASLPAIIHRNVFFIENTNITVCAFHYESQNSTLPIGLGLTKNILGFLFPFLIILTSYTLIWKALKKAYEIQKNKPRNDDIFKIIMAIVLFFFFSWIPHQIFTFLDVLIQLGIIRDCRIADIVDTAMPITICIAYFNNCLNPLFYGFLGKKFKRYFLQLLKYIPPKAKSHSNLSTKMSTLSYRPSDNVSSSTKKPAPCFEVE

HEK293 [16] = experiment: cytotoxicity in HEK293T NF-kB-Luc cells, SAR follow-up, cytotoxicity control for NF-kB activator project, cell-based, resazurin fluorescence (AID 493251); type: functional; details: Homo sapiens
HEK293 [17] = experiment: SAR Analysis of small molecule inhibitors of both B-cell and T-cell specific antigen receptor-induced NF-kB activation in a HEK-293T cell line using a luminescence assay. [Related pubchem assays (depositor defined):AID435003, AID435022, AID465, AID489019, AID489029]; type: functional, cell-based; details: Homo sapiens
[18] = biological target: T6, Sphingosine 1-phosphate receptor 4 (Homo sapiens, UniProt O95977); experiment: Late stage fluorescence dose response cell-based screening assay for antagonists of the Sphingosine 1-Phosphate Receptor 4 (S1P4). [Related pubchem assays: 1524 (Confirmation screen (S1P4 antagonists).), 1510 (Primary screen (S1P4 antagonists).), 1853 (Summary AID (S1P4 antagonists).), 1692 (Dose response screen (S1P4 antagonists).)]; type: functional
T6 sequence (O95977 whole entry): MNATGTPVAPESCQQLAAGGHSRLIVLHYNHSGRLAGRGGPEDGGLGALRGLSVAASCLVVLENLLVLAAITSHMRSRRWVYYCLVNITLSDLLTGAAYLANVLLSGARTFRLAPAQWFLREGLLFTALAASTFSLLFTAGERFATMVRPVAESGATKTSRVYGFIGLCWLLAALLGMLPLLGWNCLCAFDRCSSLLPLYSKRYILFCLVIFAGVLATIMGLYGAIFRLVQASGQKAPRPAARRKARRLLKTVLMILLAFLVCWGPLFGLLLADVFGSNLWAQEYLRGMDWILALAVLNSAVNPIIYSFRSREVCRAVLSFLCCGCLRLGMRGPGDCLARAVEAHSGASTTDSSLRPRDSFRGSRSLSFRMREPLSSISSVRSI

Beta-galactosidase [19] = biological target: T4, Beta-galactosidase; type: functional
[20] = biological target: T6, Sphingosine 1-phosphate receptor 4; experiment: Fluorescence dose response cell-based high throughput screening assay for antagonists of the Sphingosine 1-Phosphate Receptor 4 (S1P4). [Related pubchem assays: 1524 (Confirmation in triplicates.), 1510 (Primary screen.)]; type: functional
[21] = growth suppression of beta-catenin-knockout colon cells, dose response, cell-based, HCT116, human colon tumor (AID 1045); type: functional;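 also: HCT116 colon tumor cells with beta catenin knocked out; cells exposed to compound for 60 hours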
A-375 [22] = experiment: MITF: Counter assay: A375 proliferation Measured in Cell-Based System Using Plate Reader - 2084-03_Inhibitor_Dose_DryPowder_Activity. [Related pubchem assays (depositor defined):AID488944]; type: functional; details: Homo sapiens
[23] = biological target: T7, Delta-type opioid receptor (Homo sapiens, UniProt P41143); experiment: HTS Image-Based Screen for Agonists of the DOR Receptor. [Related pubchem assays (depositor defined):AID1777, AID1786, AID2133]; type: functional
A-375 [24] = experiment: A375 melanoma cell viability reduction, dose response, counter-screen for MITF modulator project, cherry-pick samples, set 2 (AID 540335); type: functional, cell-based; details: Homo sapiens
Vero = experiment: host cell cytotoxicity of antiviral hits, dose response, cytotoxicity control for West Nile virus antiviral project, secondary assay (AID 1650); type: functional; details: Chlorocebus sabaeus
[25] = biological target: Sphingosine 1-phosphate receptor 1 (Homo sapiens, UniProt P21453); type: functional;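 also: Tango beta-arrestin reporter U2OS cells stimulated with S1P near its EC80; inhibitor potency meaning antagonism of receptor activation by the natural agonist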
[26] = biological target: T7, Delta-type opioid receptor; experiment: HTS Image-Based Screen for Antagonists of the DOR Receptor. [Related pubchem assays (depositor defined):AID1777, AID1785, AID1786, AID2133]; type: functional
[27] = growth suppression of PTEN-null colon cells, dose response, cell-based, HCT116 PTEN knockout (AID 1047); type: functional;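 also: HCT116 colon tumor cells with PTEN knocked out; cells exposed to compound for 60 hours before readout; potency for loss of cell viability measured by luminescence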
Mu-type opioid receptor = Mu-type opioid receptor (Homo sapiens, UniProt P35372); experiment: HTS Image-Based Screen for Agonists of the MOR Receptor. [Related pubchem assays (depositor defined):AID1777, AID1785, AID1786, AID2133]; type: functional;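 also: imaging of beta-arrestin GFP recruitment into spots after receptor activation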
Jurkat = experiment: SAR Analysis of small molecule inhibitors of both B-cell and T-cell specific antigen receptor-induced NF-kB activation in a Jurkat cell line using a luminescence assay. [Related pubchem assays (depositor defined):AID435003, AID435022, AID465, AID489029]; type: functional, cell-based; details: Homo sapiens

T2 sequence (O43614 whole entry): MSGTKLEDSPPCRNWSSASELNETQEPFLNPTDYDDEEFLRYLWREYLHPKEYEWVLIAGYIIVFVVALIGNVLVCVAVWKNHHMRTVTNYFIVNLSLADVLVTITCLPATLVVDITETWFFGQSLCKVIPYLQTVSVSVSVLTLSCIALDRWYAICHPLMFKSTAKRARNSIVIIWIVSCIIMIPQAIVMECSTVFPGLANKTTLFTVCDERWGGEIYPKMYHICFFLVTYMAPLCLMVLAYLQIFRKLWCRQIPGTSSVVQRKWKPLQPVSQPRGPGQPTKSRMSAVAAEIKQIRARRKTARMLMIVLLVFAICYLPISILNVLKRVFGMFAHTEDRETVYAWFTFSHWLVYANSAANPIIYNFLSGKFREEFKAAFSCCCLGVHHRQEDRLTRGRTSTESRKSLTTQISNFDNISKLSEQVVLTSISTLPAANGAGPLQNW
T7 sequence (P41143 whole entry): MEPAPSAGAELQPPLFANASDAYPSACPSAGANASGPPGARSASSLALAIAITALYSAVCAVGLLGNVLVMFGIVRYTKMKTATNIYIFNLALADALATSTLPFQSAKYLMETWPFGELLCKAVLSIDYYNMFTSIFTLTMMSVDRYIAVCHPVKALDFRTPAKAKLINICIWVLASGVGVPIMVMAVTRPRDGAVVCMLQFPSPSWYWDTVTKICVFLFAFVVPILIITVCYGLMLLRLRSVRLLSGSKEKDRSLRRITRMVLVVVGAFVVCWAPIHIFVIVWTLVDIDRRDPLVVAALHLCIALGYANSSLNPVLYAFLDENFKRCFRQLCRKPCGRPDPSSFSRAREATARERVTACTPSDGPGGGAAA
T4 sequence (Q8VNN2 whole entry): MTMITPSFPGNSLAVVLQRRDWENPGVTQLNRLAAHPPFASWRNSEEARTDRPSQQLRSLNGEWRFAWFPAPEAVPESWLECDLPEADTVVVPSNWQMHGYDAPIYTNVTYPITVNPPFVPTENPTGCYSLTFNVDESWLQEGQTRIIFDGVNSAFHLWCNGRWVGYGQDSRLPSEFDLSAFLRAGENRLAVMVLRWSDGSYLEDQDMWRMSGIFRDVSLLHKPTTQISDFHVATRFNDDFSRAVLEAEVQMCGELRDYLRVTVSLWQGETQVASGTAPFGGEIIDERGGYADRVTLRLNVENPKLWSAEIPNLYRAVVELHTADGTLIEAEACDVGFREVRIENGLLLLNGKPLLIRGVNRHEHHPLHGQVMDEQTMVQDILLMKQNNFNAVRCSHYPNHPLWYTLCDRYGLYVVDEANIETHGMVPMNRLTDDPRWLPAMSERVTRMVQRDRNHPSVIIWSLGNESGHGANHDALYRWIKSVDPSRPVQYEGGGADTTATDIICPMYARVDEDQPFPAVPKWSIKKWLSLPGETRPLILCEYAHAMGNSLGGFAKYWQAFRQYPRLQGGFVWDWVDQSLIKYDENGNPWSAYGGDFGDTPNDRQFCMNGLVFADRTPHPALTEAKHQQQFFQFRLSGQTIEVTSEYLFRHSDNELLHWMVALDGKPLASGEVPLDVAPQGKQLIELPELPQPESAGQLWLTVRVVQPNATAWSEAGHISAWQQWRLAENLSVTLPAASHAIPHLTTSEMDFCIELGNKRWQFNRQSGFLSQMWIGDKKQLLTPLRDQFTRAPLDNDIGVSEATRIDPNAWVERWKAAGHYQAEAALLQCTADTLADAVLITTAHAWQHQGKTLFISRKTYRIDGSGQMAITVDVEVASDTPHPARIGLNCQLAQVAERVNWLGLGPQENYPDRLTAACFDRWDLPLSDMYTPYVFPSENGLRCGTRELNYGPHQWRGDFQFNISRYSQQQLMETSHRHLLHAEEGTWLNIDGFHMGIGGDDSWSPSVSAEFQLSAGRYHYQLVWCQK
Latent membrane protein 1, sequence (P03230 whole entry): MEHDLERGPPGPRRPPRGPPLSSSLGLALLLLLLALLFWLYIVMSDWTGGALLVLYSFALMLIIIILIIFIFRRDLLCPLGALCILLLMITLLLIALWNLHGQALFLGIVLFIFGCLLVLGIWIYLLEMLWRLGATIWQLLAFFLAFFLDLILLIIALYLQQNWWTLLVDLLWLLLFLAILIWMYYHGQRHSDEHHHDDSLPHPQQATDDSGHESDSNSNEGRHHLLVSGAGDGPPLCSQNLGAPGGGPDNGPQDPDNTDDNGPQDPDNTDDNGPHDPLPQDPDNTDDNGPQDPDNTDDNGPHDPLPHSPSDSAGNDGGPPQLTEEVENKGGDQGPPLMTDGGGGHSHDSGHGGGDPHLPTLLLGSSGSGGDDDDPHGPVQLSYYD
Sphingosine 1-phosphate receptor 1, sequence (P21453 whole entry): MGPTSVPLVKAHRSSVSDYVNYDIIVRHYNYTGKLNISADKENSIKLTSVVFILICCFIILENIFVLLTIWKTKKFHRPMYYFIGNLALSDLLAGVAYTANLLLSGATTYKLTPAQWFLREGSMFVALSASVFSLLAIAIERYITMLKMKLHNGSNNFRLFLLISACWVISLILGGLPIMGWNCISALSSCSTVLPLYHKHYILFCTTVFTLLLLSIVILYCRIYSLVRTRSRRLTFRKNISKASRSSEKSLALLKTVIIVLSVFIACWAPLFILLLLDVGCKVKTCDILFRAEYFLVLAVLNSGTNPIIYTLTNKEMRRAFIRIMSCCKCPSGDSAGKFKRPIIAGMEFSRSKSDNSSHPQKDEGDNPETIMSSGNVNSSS
Mu-type opioid receptor, sequence (P35372 whole entry): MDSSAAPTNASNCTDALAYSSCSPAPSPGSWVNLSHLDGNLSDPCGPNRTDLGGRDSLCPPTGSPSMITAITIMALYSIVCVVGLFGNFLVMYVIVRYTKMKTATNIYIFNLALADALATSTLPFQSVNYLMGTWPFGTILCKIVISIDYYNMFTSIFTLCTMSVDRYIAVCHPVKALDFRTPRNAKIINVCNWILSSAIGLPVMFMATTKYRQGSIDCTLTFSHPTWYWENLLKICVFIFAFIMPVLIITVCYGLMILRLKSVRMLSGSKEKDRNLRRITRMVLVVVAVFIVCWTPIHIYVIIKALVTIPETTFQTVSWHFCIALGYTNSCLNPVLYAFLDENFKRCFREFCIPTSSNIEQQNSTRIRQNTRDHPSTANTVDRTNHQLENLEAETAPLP
Beta Lactamase, sequence (Q932Y6 whole entry, the tested form may be a part): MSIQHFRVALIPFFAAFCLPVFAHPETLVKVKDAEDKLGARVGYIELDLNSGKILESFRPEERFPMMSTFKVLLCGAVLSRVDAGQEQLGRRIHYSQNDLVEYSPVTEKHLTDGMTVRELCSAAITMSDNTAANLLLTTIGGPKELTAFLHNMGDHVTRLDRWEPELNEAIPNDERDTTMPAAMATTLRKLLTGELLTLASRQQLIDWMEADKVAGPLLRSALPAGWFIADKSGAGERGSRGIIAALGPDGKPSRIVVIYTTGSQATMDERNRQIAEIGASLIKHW
Kappa-type opioid receptor, sequence (P41145 whole entry): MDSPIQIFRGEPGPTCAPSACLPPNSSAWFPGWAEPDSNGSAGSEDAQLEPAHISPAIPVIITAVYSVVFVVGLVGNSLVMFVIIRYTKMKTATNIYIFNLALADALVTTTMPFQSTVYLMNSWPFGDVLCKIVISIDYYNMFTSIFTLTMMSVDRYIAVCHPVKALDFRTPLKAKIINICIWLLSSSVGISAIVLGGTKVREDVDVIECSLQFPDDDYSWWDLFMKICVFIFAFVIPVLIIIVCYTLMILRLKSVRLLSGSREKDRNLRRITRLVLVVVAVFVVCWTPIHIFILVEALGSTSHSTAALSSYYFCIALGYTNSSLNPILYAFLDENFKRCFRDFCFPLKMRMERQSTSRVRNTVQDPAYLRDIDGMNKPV

CN1C(=O)C2(N=c3ccccc3=N2)c2ccccc21
EC50 [1]: 79.5 µM (active)
IC50 [2]: 3.22 µM (active)
IC50 (Orexin receptor type 2 [3]): > 50 µM (inactive)
EC50 [4]: > 120 µM (not active)
IC50 (CHO-K1): > 66.2 µM (inactive)
IC50 [5]: > 49.7 µM (inactive)
IC50 (Orexin receptor type 2 [6]): > 88.8 µM (inactive)
EC50 [7]: > 120 µM (not active)
IC50 [8]: 13.8 µM (inactive)

O=C(c1ccccc1)c1cc(Cl)ccc1N1C(=O)C=CC1=O
AC50 [9]: 11.9 µM (active)
AC50 [10]: 0.552 µM (active)
IC50 (Beta Lactamase): 14.7 µM (inactive)
IC50 (CHO): 2.26 µM (active)

OCCN(CCO)CC(O)COCCC12CC3CC(CC(C3)C1)C2 (configuration not stated)
AC50 [11]: 77.6 µM (active)

Cc1ccc(S(=O)(=O)Nc2cccc3cccnc23)cc1
IC50 [12]: 1.84 µM (active)
IC50 [13]: 2.57 µM (active)
EC50 (Beta-galactosidase [14]): > 40 µM (inactive)
IC50 [15]: 3.67 µM (active)
IC50 (HEK293 [16]): 56.8 µM (inactive)
EC50 [1]: 13.7 µM (active)
IC50 (HEK293 [17]): 18.1 µM (active)
IC50 [18]: 0.55 µM (active)
EC50 (Beta-galactosidase [19]): > 31.5 µM (inactive)
IC50 [20]: 0.63 µM (active)
EC50 [21]: 2.5 µM (active)
AC50 (A-375 [22]): > 35 µM (active)
EC50 [23]: > 32 µM (inactive)
EC50 [4]: 15.2 µM (active)
AC50 (A-375 [24]): > 35 µM (active)
CC50 (Vero): 6.89 µM (active)
AC50 [9]: 5.55 µM (active)
IC50 [25]: 1.42 µM (active)
IC50 [26]: > 32 µM (inactive)
EC50 [27]: 2.84 µM (active)
EC50 (Mu-type opioid receptor): > 32 µM (inactive)
IC50 (Jurkat): 1.06 µM (active)
EC50 [7]: 11.5 µM (active)
